Article PMC7698860, “Discovery and Design of Novel Small Molecule GSK-3 Inhibitors Targeting the Substrate Binding Site” (International Journal of Molecular Sciences, 2020)

Assays:
[1] = tested on: Mouse hippocampal primary neurons; test: β-catenin immunostaining in hippocampal primary neurons; assay type: cell-based; settings: 4-4 5 μM, CHIR99021 10 μM, 4 h
Protocol: Hippocampi were isolated from C57BL6/J mice (0–1 day old), and tissues were digested with trypsin type XI (Sigma, Rehovot, Israel, Cat # T1005), and DNase type IV (Sigma, cat #D5025). Cells were suspended in a plating medium including MEM supplemented with 10% FBS, transferrin (0.089 mg/m), GlutaMAX (0.75 U/mL) (Sigma, Cat # 35050-038), insulin (16 μM) (Roche, Basel, Switzerland, Cat # 45865100), and SM1 neuronal supplement (STEMCELL, Seattle, WA, USA, Cat # 05711), and plated on glass coverslips coated with Matrigel (Corning, NY, USA, Cat# 356234) in a 24-well plate. […]
Primary neuron cells were treated with 4-4 (5 μM), CHIR99021 (10 μM) (Merck, MA, USA), or, vehicle (DMSO/1%Tween 80) for 4 hr. Cells were fixed with 4% PFA and immunostained with anti-βcatenin and anti-MAP2 (Sypnactic System, Goettingen, Germany, A neuronal marker) antibodies. βcatenin signal was evaluated by Image J software using co-localization finder plugin (https://imagej.nih.gov/ij/plugins/colocalization-finder.html) that calculated the ratio of βcatenin over MAP2 and DAPI in each cell. The average ratio that was determined for control vehicle-treated cells was set to 1 and respective folds of treated cells were calculated accordingly.

GSK-3β [2] = biological target: T1, GSK-3β (Oryctolagus cuniculus, UniProt A0A5F9DUX8); test: In vitro GSK-3β kinase assay (ELISA-based, IRS-1 peptide substrate); assay type: biochemical, rabbit; settings: for IC50: GSK-3β inhibition, 10 μM ATP; for IC50 / GSK-3β inhibition (in words): in vitro kinase assay; for GSK-3β inhibition (in words): screening hits; for Effect of Triton ×100 on inhibition of GSK-3β: 20 μM, 0.05% Triton ×100 (colloidal aggregation control)
Protocol: (§1) An ELISA-based assay was developed in our laboratory to measure GSK-3 activity. In brief, biotin-labelled IRS-1 peptide substrate was bound to streptavidin-coated 96-well microplates. A GSK-3 assay solution (0.1 μg GSK-3β, 20 mM Tris (pH 7.3), 10 mM MgCl2, and 10 μM ATP) was added to each well, together with the candidate compound at indicated concentrations, and the plates were incubated for 15 min at 30 °C. After having been washed (PBS 0.05% tween), the plates were incubated with a specific anti-phospho IRS-1 antibody (Ser^332) (1:2000), followed by HRP-secondary antibody (1:8000). The signal was developed with TMB solution (abcam, Cambridge UK, Cat# ab210902), stopped with H2SO4, and monitored in a plate reader ([…]). Assays were conducted in duplicates in three independent experiments. In the ATP competitive, or, substrate competitive assays, the assays (60 μL) were performed in Eppendorf tubes (to use “unbound” substrate), and 10–20 μL were spotted on the streptavidin-coated plates. Km values were calculated from the non-linear curve fit, and Ki values were calculated by Kapp = Km (1 + [I]/Ki). Bacterially expressed His-tagged rabbit GSK-3β was purified as described, and purified human GSK-3α was purchased from abcam (Cat# ab42597). The selectivity of compound 4-4 against a collection of protein kinases was assayed at the International Center for Kinase Profiling at the MRC unit, University of Dundee, UK.

GSK-3β-F93A mutant = test: In vitro kinase assay with GSK-3β-F93A mutant; assay type: biochemical
Excerpt: To further confirm that compounds interact with the GSK-3β substrate binding site, we performed in vitro kinase assays with the GSK-3β-F93A mutant in which Phe 93 was replaced by alanine. […] This, in contrast, to SB216763, an established GSK-3 ATP competitive inhibitor [46] that inhibited both wild-type (WT) and the F93A mutant (Figure 3B).
as §1

GSK-3β [3] = biological target: T1, GSK-3β; test: Michaelis Menten ATP competitive and substrate competitive assays; assay type: biochemical, rabbit; settings: Lineweaver-Burk plots; for Mode of inhibition versus substrate: lines intersect at the Y-axis
Protocol: We next performed Michaelis Menten competitive assays to examine the ability of 4-3 or 4-4 to compete with ATP or with substrates. […] Subsequently, Michaelis Menten substrate competitive assays were performed and data were analyzed by Lineweaver–Burk plots (Figure 6B). […] The calculated ki values were 7.7 ± 3 and 7.0 ± 0.2 for 4-3 and 4-4 respectively. […] While most of our experiments concentrated on GSK-3β, we also tested the inhibition of GSK-3α by compounds 4-1 through 4-5. […] Inhibition of GSK-3β by 4-3 or 4-4 was not affected by the detergent (Figure 6E). As a final caveat, we evaluated the selectivity of our leading compound 4-4.
as §1

[4] = tested on: Mouse hippocampal primary neurons; test: Tau (Ser 396) phosphorylation in hippocampal primary neurons (immunoblot); assay type: cell-based; settings: 20 μM, 4 h
Protocol: Hippocampi were isolated from C57BL6/J mice (0–1 day old), and tissues were digested with trypsin type XI (Sigma, Rehovot, Israel, Cat # T1005), and DNase type IV (Sigma, cat #D5025). Cells were suspended in a plating medium including MEM supplemented with 10% FBS, transferrin (0.089 mg/m), GlutaMAX (0.75 U/mL) (Sigma, Cat # 35050-038), insulin (16 μM) (Roche, Basel, Switzerland, Cat # 45865100), and SM1 neuronal supplement (STEMCELL, Seattle, WA, USA, Cat # 05711), and plated on glass coverslips coated with Matrigel (Corning, NY, USA, Cat# 356234) in a 24-well plate. The day after plating and twice a week thereafter half of the medium was removed and was replaced with by fresh feeding medium (plating medium lacking insulin and containing Ara-C (3 μM)) (Sigma, Cat# C6645).
Equal amounts of proteins (30–50 μg) were subjected to SDS PHAGE gel electrophoresis, transferred to nitrocellulose membranes, and immunoblotted with selected antibodies followed by incubation with HRP-linked anti-rabbit, or, anti-mouse IgG (Cell signaling, MA, USA, and Jackson Immune Research, PA, USA, respectively). ECL developed membranes were imaged in UVITEC Alliance biomolecular imaging, and densitometry analysis of respected bands was analyzed with software provided by the vendor. Representative protein bands were taken from the same gel, and each gel represents three independent experiments. […]

30 protein kinases = test: Selectivity against a collection of protein kinases (International Center for Kinase Profiling, Dundee); assay type: biochemical; settings: 10 μM
Protocol: An ELISA-based assay was developed in our laboratory to measure GSK-3 activity. In brief, biotin-labelled IRS-1 peptide substrate was bound to streptavidin-coated 96-well microplates. A GSK-3 assay solution (0.1 μg GSK-3β, 20 mM Tris (pH 7.3), 10 mM MgCl2, and 10 μM ATP) was added to each well, together with the candidate compound at indicated concentrations, and the plates were incubated for 15 min at 30 °C. After having been washed (PBS 0.05% tween), the plates were incubated with a specific anti-phospho IRS-1 antibody (Ser^332) (1:2000), followed by HRP-secondary antibody (1:8000). The signal was developed with TMB solution (abcam, Cambridge UK, Cat# ab210902), stopped with H2SO4, and monitored in a plate reader ([…]). Assays were conducted in duplicates in three independent experiments. In the ATP competitive, or, substrate competitive assays, the assays (60 μL) were performed in Eppendorf tubes (to use “unbound” substrate), and 10–20 μL were spotted on the streptavidin-coated plates. Km values were calculated from the non-linear curve fit, and Ki values were calculated by Kapp = Km (1 + [I]/Ki). Bacterially expressed His-tagged rabbit GSK-3β was purified as described, and purified human GSK-3α was purchased from abcam (Cat# ab42597). […]

SH-SY5Y cells = test: Cytoplasmic β-catenin levels in SH-SY5Y cells (immunoblot); assay type: cell-based, human; settings: 4 h
Protocol: To verify the potential biological activity of our SCI compounds, we tested their ability to inhibit cellular GSK-3. We focused on the SCI compound 4-4 that was the best inhibitor of the five molecules that were tested (4-1–4-5) β-catenin, which is a central Wnt signaling component, and a well-established GSK-3 target. β-catenin phosphorylation by GSK-3 triggers its rapid proteasomal degradation. We, therefore, studied potential alterations in β-catenin levels following treatment with 4-4. Human neuroblastoma SH-SY5Y cells were treated with increasing concentrations of 4-4, and the levels of β-catenin were determined in the cytoplasmic fraction (prepared after cell permeabilization and sup collection), this to avoid possible “masking” of membrane-associated β-catenin. […]
Equal amounts of proteins (30–50 μg) were subjected to SDS PHAGE gel electrophoresis, transferred to nitrocellulose membranes, and immunoblotted with selected antibodies followed by incubation with HRP-linked anti-rabbit, or, anti-mouse IgG (Cell signaling, MA, USA, and Jackson Immune Research, PA, USA, respectively). ECL developed membranes were imaged in UVITEC Alliance biomolecular imaging, and densitometry analysis of respected bands was analyzed with software provided by the vendor. […]

T1 sequence (A0A5F9DUX8 entry or part of it): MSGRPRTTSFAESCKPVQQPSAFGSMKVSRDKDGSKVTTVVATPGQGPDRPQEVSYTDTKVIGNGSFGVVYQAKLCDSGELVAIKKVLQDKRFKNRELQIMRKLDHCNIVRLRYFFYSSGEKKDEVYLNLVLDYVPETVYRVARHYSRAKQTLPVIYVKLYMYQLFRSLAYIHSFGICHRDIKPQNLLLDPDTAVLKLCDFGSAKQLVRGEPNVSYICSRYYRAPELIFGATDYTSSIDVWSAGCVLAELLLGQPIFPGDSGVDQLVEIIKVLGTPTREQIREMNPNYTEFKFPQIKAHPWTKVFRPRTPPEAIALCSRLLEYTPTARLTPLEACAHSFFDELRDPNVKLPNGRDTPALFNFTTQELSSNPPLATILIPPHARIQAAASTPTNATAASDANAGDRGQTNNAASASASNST

**Q.** Which “β-catenin levels in soma and dendrites of neurons” value [1] does the source give for Cc1c[nH]c(-c2cnc(NCCNc3ccc(C#N)cn3)nc2-c2ccc(Cl)cc2Cl)n1 [CHIR9920, reference compound] here?
**A.** significant increase

**Q.** How did the IC50 (GSK-3β [2]) turn out when Cc1sc2nc3c(SC(C)C(=O)O)cc(C(=O)c4ccccc4O)cn3c(=O)c2c1C (stereo not shown) [Compound 1-6] was run?
**A.** 200 ± 30 µM

**Q.** For O=C(O)CC1S/C(=N/N=C/c2cc(Br)ccc2OCc2ccc(Cl)cc2)NC1=O (stereo not shown) [Compound 1-7], which IC50 (GSK-3β [2]) is on record?
**A.** 180 ± 20 µM

**Q.** O=C(O)CCCNc1cc(N2CCN(c3ccc(F)cc3)CC2)c2noc3c2c1C(=O)c1ccccc1-3 [Compound 2-1] was tested. Which “GSK-3β inhibition (in words)” value (GSK-3β [2]) did it give?
**A.** best GSK-3β inhibitors

**Q.** What does the source list for O=C(O)CCCNc1cc(N2CCN(C(=O)c3ccco3)CC2)c2noc3c2c1C(=O)c1ccccc1-3 [Compound 2-2]?
**A.** IC50 (GSK-3β [2]): 21 ± 4 µM; GSK-3β inhibition (in words) (GSK-3β [2]): best GSK-3β inhibitors

**Q.** For O=C(O)CCNc1cc(N2CCN(C(=O)c3ccco3)CC2)c2noc3c2c1C(=O)c1ccccc1-3 [Compound 3-5], which IC50 (GSK-3β [2]) is on record?
**A.** > 21 µM

**Q.** O=C(O)CCNc1cc(N2CCN(c3ccc(F)cc3)CC2)c2noc3c2c1C(=O)c1ccccc1-3 [Compound 3-8] was tested. Which IC50 (GSK-3β [2]) did it give?
**A.** 8 ± 3 µM

**Q.** O=C(O)CNc1cc(N2CCC(c3ccccc3)CC2)c2noc3c2c1C(=O)c1ccccc1-3 [Compound 3-9] was tested. Which IC50 (GSK-3β [2]) did it give?
**A.** > 21 µM

**Q.** With CCOC(=O)C1CCCN(c2cc(Nc3ccc(C(=O)O)cc3)c3c4c(onc24)-c2ccccc2C3=O)C1 (stereo not shown) [Compound 3-13] as the molecule, how does the IC50 (GSK-3β [2]) read?
**A.** > 21 µM

**Q.** For O=C(O)c1ccc(N2CCN(c3cc(NCCP(=O)(O)O)c4c5c(onc35)-c3ccccc3C4=O)CC2)cc1 [Compound 4-3], which “Inhibition of F93A mutant” value (GSK-3β-F93A mutant; 20 μM each) is on record?
**A.** did not inhibit

**Q.** What about the “Effect of Triton ×100 on inhibition of GSK-3β” value (GSK-3β [2]) of the same molecule?
**A.** not affected

**Q.** What about the IC50 (GSK-3β [2]) of the same molecule?
**A.** 1 to 4 µM

**Q.** What about the “Mode of inhibition versus ATP” value (GSK-3β [3]) of the same molecule?
**A.** non-competitive inhibitors for ATP

**Q.** And the “Mode of inhibition versus substrate” value (GSK-3β [3])?
**A.** substrate competitive inhibitors

**Q.** How did the “Phosphorylation of tau (Ser 396)” value [4] turn out when O=C1c2ccccc2-c2onc3c(N4CCN(c5ccc(O)cc5)CC4)cc(NCCP(=O)(O)O)c1c23 [Compound 4-4] was run?
**A.** reduced

**Q.** And the “Inhibition of F93A mutant” value (GSK-3β-F93A mutant; 20 μM each)?
**A.** did not inhibit

**Q.** And the “Effect of Triton ×100 on inhibition of GSK-3β” value (GSK-3β [2])?
**A.** not affected

**Q.** What about the IC50 (GSK-3β [2]) of the same molecule?
**A.** 1 to 4 µM

**Q.** What about the “Selectivity over 30 protein kinases” value (30 protein kinases) of the same molecule?
**A.** showed specificity toward GSK-3α and GSK-3β

**Q.** And the “Mode of inhibition versus ATP” value (GSK-3β [3])?
**A.** non-competitive inhibitors for ATP

**Q.** And the “Mode of inhibition versus substrate” value (GSK-3β [3])?
**A.** substrate competitive inhibitors

**Q.** And the “Cytoplasmic β-catenin at higher doses” value (SH-SY5Y cells; 10 μM)?
**A.** reduction

**Q.** And the “Concentration sufficient to activate β-catenin in the cytoplasm” value (SH-SY5Y cells)?
**A.** 1 to 5 µM

**Q.** And the “β-catenin levels in soma and dendrites of neurons” value [1]?
**A.** significant increase

**Q.** How did the “Inhibition of F93A mutant” value (GSK-3β-F93A mutant; 1 μM) turn out when Cn1cc(C2=C(c3ccc(Cl)cc3Cl)C(=O)NC2=O)c2ccccc21 [SB216763, reference compound] was run?
**A.** inhibited

**Q.** What about the “Inhibition of wild-type (WT) GSK-3β” value (GSK-3β [2]; 1 μM) of the same molecule?
**A.** inhibited

**Q.** For “KEAPPSPPQS(p)PF [Compound L803F, reference compound]”, which “Inhibition of F93A mutant” value (GSK-3β-F93A mutant; 20 μM each) is on record?
**A.** barely inhibited
